Laboratory results reported in patent publication US7951232B2, “Surface coating compositions and methods” (Elevance Renewable Sciences, Inc., priority 2006, dated 2011).

What was measured:
[1] = system: Bacillus licheniformis ATCC 14580; assay: Growth inhibition in MRS medium (OD600); format: cell-based; settings: 0.075% w/v 9-DA from K9-DA, pH not adjusted, listed as potassium 9-DA
Method: (§1) Efficacy of the potassium salt of 9-DA was determined through incubation of the following organisms in the presence of varying concentrations of the potassium salt: Pseudomonas straminea ATCC 33636, Bacillus subtilis ATCC 6051, Bacillus licheniformis ATCC 14580, Bacillus cereus ATCC 14579, Pediococcus acidilactici ATCC 8042, and Lactobacillus casei ATCC 334.
(§2) Stock cultures of each organism were transferred into MRS liquid medium. MRS medium (Difco 288130) was purchased from Becton, Dickinson and Company, Sparks, Md.
(§3) The efficacy of different levels of the potassium salt of 9-DA was tested depending on the organism to inhibit the growth of various microorganisms indicated above.
(§4) The selected organisms were incubated overnight in 5 ml of MRS medium at 35° C. and 250 rpm. MRS media with K-9-DA was prepared, along with a control of straight media (no antimicrobial added). The concentrated antimicrobial agents were diluted with the appropriate media required for the respective microorganisms, to reach the required concentrations for the studies as indicated below. The antimicrobial agents were added by weight/volume percent on an ‘as 9-DA’ basis to the media. The purity of the antimicrobial agent (99% for K-9-DA) was taken into account. The pH of the medium was not adjusted. The target for initial cell density was 10^5 to 10^6 cfu/ml. […] OD600 readings were taken at 0, 4, 17, 23 and 47 hours. […]

[2] = system: Pediococcus acidolactici ATCC 8042; assay: Growth inhibition in MRS medium at various pH levels (OD600); format: cell-based, Pediococcus acidilactici; settings: 0.05% w/v (as 9-DA)
Method: (§5) Efficacy of potassium salt of 9-DA were tested at various pH levels against the following: Bacillus cereus ATCC 14579, Pediococcus acidolactici ATCC 8042, Pseudomonas straminea ATCC 33636, and Lactobacillus casei ATCC 334. Stock cultures of each organism were transferred into MRS liquid medium. MRS medium (Difco 288130) was purchased from Becton, Dickinson and Company, Sparks, Md. The efficacy of the potassium salt of 9-DA (K-9-DA) was tested at different concentrations and pH levels, including 6.75 (unadjusted), 7.5, and 8.5. The selected organisms were incubated overnight in 5 ml of MRS medium at 35° C. and 250 rpm. MRS media with K-9-DA was prepared, along with a control of straight media (no antimicrobial added). The antimicrobial agent was added by weight/volume percent to the media. The purity, 99% for K-9-DA, was taken into account. The pH adjustments to 7.5 and 8.5 were done with 50% potassium hydroxide. Filter sterilization was used instead of autoclaving to prevent adverse chemical reactions at higher pH and temperature. The target for initial cell density was 10^5 to 10^6 cfu/ml. According to the McFarland standard, 0.01 OD600 is equivalent to approximately 10^8 cfu/ml. To achieve the proper dilution, 30 μl of overnight culture diluted to 0.01 OD600 was added to the 3 ml of media in each tube. The tubes were incubated at 35° C. with the exception of Pseudomonas strains which were incubated at 30° C. Treatments were all done in duplicate. All strains were shaken at 250 rpm, with the exception of Lactobacillus (because it is anaerobic). OD600 readings were taken at 0, 19, 25.5, 42.5 and 49 hours.
“Percent reduction in growth vs. control” was defined as (1−abs. of treatment/abs. of control)×100.

[3] = system: Lactobacillus casei ATCC 334; assay: as above; format: cell-based; settings: 0.075% w/v (as 9-DA)
Method: as §5, with “The tubes were incubated at 35° C. with the exception of Pseudomonas strains which were incubated at 30° C. Treatments were all done in duplicate. All strains were shaken at 250 rpm, with the exception of Lactobacillus (because it is anaerobic).” left out, “hours. […]” for “hours.”

[4] = system: microorganisms of Table 15 with the exception of Bacillus licheniformis; assay: Growth inhibition in MRS medium (OD600), summary over organisms; format: cell-based; settings: all concentrations tested
Method: as §1, §2, §3, §4

[5] = system: Escherichia coli 0157:H7, ATCC 43895; assay: Time-Kill Procedure (ASTM), rate of kill; format: cell-based; settings: all concentrations (0.01, 0.05 and 0.1%), after 10 minutes
Method: (§6) The rate of kill for these organisms upon exposure to 9-decenoic acid was determined using the American Society for Testing and Materials (ASTM) procedure entitled “Standard Test Method for the Assessment of Microbiocidal Activity of Test Materials Using a Time-Kill Procedure”, October 1998. This procedure incorporates the recommendations described in the “Manual of Clinical Microbiology,”5th ed., edited by A. B. Balows et al., ASM, Washington, and is directed by the Federal Register, June 1994.
(§7) Stock cultures were transferred into TSB and incubated for 18-24 hours at 37±2° C. A second transfer was made onto TSA plates and were incubated for 18-24 hours at 37±2° C. The plates were removed from incubation and the bacterial growth washed from the agar surface using Butterfield's Phosphate Buffered Dilution Water (PBDW). The bacterial suspension was adjusted to contain approximately 10^8 Colony Forming Units (CFU)/ml with PBDW using spectrophometric methods extant in the laboratory.
(§8) The concentrated 9-decenoic acid was diluted 1:40 in filter sterilized isopropanol to yield a 2.5% stock solution. Subsequent dilutions to the 9-decenoic acid stock solutions were made with sterile Deionized Water (DI) to achieve concentrations of 0.1%, 0.05%, 0.01%, and 0.001%. The pH was determined for each dilution; pH values ranged from 4.4-4.1. Additionally, the 9-decenoic acid stock solution was adjusted to pH 7 with 1 N NaOH and serially diluted with sterile DI to achieve concentrations of 1.0%, 0.75% and 0.5%.
(§9) Compliant with the ASTM procedure cited, for each challenge microorganism a 9.9 ml aliquot of the prepared 9-decenoic acid suspension was added to a sterile tube. A 0.1 ml aliquot of the standardized inoculum was added to the 9-decenoic acid solution representing the start of the test exposure. The inoculated 9-decenoic acid solution was immediately mixed thoroughly. The inoculated suspension was held at room temperature for 0.5, 2, 5, 7 and 10 minute exposure times for tests run at ˜pH 4. The pH 7 tests were held at room temperature for 0.5 and 2 minutes.
(§10) At each exposure sample time, a 1.0 ml aliquot of the inoculated 9-decenoic acid suspension was transferred to 9.0 ml of D/E Neutralizing Broth. Additional ten-fold serial dilutions were made in PBDW and plated in duplicate on TSA. All plates were incubated for 48 hours at 37±2° C. and visually examined for growth. The plates are enumerated, recorded and log kill determined for each time point.
(§11) The following study controls were conducted: culture purity, neutralizer sterility, initial suspension population, test population, neutralization verification and a negative control using isopropanol. Culture purity was verified by performing a streak plate for isolated colonies on the each culture used. All cultures were determined to be pure based on consistent colony morphology typical for the test organism. The neutralizer sterility was confirmed by no growth in an incubated sample.
(§12) The population of the initial and test culture were determined by serial dilution, plating and enumerating after incubation. The initial suspension were determined to be ≧10^4 CFU/ml. The test culture population was used for calculation of the log reduction achieved at each time point.
(§13) Neutralization effectiveness was verified by a filtration test. For each organism, four tubes were prepared with 9 ml D/E Neutralizing Broth and fewer than 100 CFU/ml of the organism. A 1.0 ml aliquot of prepared 9-decenoic acid was added to each tube. Immediately, the entire contents of 2 tubes were filtered through a filtration apparatus and rinsed with sterile diluent. The remaining 2 tubes were held at room temperature for 30 minutes and then the entire contents were filtered using the same procedure. The filters were aseptically transferred to TSA plates and incubated for 48 hours at 37±2° C. and visually examined for growth.
(§14) This control was inoculated, subcultured and incubated as in the test procedure.

[6] = system: Candida albicans, ATCC 10231; assay: Time-Kill Procedure (ASTM), rate of kill; format: cell-based; settings: all concentrations (0.01, 0.05 and 0.1%), after 10 minutes
Method: as §6, §7, §8, §9, §10, §11, §12, §13, §14

[7] = system: Escherichia coli 0157:H7 ATCC 43895; assay: MIC and MBC determination in Mueller-Hinton Broth; format: cell-based; settings: 37±2° C., 20-24 hours
Method: Efficacy of 9-decenoic acid and the methyl ester of 9-decenoic acid against Pseudomonas aeruginosa ATCC 15442, Escherichia coli 0157:H7 ATCC 43895 and Candida albicans ATCC 10231 was measured through the determination of the minimum inhibitory concentration (MIC) and minimum bacteriocidal concentration (MBC) using the procedures in the Federal Register, June 1994 and the present NCCLS M11-A4 protocol.
Stock cultures of each organism were transferred onto Mueller-Hinton Agar (MHA) plates and incubated for 24±2 hours at 37±2° C. On the day of the test, the top of at least three to five well-isolated colonies were transferred via wire loop to a tube containing 4 to 5 ml of Trypticase Soy Broth (TSB). The TSB culture was incubated for 2 to 6 hours and turbidity was adjusted with sterile saline to achieve the turbidity of the 0.5 McFarland Standard.
The concentrated 9-decenoic acid was diluted 1:40 in Mueller-Hinton Broth (MHB) to yield a 2.5% stock solution. The test solution of the methyl ester of 9-decenoic acid was formulated in the same manner. For each organism, 12 dilutions of the 9-decenoic acid and the methyl ester of 9-decenoic acid in MHB were prepared ranging from 0.2500 to 0.0005%. A 2-ml aliquot of appropriately diluted 9-decenoic acid or the methyl ester of 9-decenoic acid solution was placed in each tube. Each tube was inoculated with 0.05 ml of a 1:10 dilution of one challenge organism. Tubes were incubated at 37±2° C. for 20-24 hours and observed for growth or no growth. […] Controls were run for sterility, viability and organism confirmation. It was determined that all cultures were viable and pure.
The MBC was defined as the concentration of 9-decenoic acid or the methyl ester of 9-decenoic acid that completely eradicated viable organisms from the test system.

[8] = system: Pseudomonas aeroginosa, ATCC 15442; assay: Time-Kill Procedure (ASTM), rate of kill; format: cell-based, Pseudomonas aeruginosa; settings: all concentrations (0.01, 0.05 and 0.1%), after 10 minutes
Method: as §6, §7, §8, §9, §10, §11, §12, §13, §14

[9] = system: Aureobasidium pullulans ATCC 12536; assay: Dry film preservative test, growth on PDA agar surface; format: cell-based; settings: 0.5% in PDA agar
Method: (§15) The efficacy of 9-decenoic acid and the methyl ester of 9-decenoic acid as a dry film preservative was determined through the incubation of Trichoderma virens ATCC 9645, Cladosporium cladosporiodes ATCC 16022 and Aureobasidium pullulans ATCC 12536 in the presence of varying concentrations of 9-decenoic acid or the methyl ester of 9-decenoic acid on an agar surface.
(§16) Fungal spores were hydrated overnight in 0.1% Tween 80 and then plated on Potato Dextrose Agar (PDA) and incubated at 25-30° C. for 6 days. The spores were washed from the surface with 5 mls of 0.1% Tween 80 and enumerated.
(§17) PDA plates with prepared according to the manufactures instructions through sterilization. The agar was tempered to approximately 50° C. and filter sterilized 9-decenoic acid was added to achieve concentrations of 0.1, 0.5 and 1.0% in the agar. Additionally, one concentration of the methyl ester of 9-decenoic acid (0.5%) was also prepared. The agar was thoroughly mixed and poured into sterile petri plates and allowed to solidify.
(§18) The agar plates were inoculated with the spore solution to achieve 10^2 spores/plate. The plates were incubated at 25-30° C. in Ziploc bags with a wet paper towel to keep the moisture level high. The plates were examined for growth after 4, 7, 16, 24 and 31 days. The percent coverage of growth on the agar surface was recorded at each sample point.

[10] = system: Cladosporium cladosporiodes ATCC 16022; assay: as above; format: cell-based; settings: 0.5% in PDA agar
Method: as §15, §16, §17, §18

[11] = system: Trichoderma virens ATCC 9645; assay: as above; format: cell-based; settings: 0.5% in PDA agar
Method: as §15, §16, §17, §18

C=CCCCCCCCC(=O)O.[K] [K9-DA, Potassium-9 Decenoic Acid]
% reduction in growth vs. control [1]: 88.63%
% reduction in growth vs. control ([2]; Non-pH adjusted (6.75)): 90.6%
% reduction in growth vs. control ([2]; pH 7.5): 93.2%
% reduction in growth vs. control ([2]; pH 8.5): 95.6%
% reduction in growth vs. control ([3]; Non-pH adjusted (6.75)): 88.4%
% reduction in growth vs. control ([3]; pH 7.5): 91.7%
reduction in growth when compared to controls [4]: ≥ 95%

C=CCCCCCCCC(=O)OC [Methyl ester of 9-decenoic acid, methyl ester of 9-decenoic acid]
log reduction in time kill test [5]: < 1 log
log reduction in time kill test [6]: < 1 log
MIC ([7]; Mueller-Hinton Broth): 0.1250%
MBC ([7]; no-growth tubes subcultured on TSA): 0.1250%
log reduction in time kill test [8]: < 1 log
time up to which growth of the culture was significantly inhibited [9]: 16 days
Percentage coverage of agar surface ([9]; 4 days): 0%
Percentage coverage of agar surface ([9]; 7 days): 2.5%
Percentage coverage of agar surface ([9]; 16 days): 10%
Percentage coverage of agar surface ([9]; 24 days): 50%
Percentage coverage of agar surface ([9]; 31 days): 75%
time up to which growth of the culture was significantly inhibited [10]: 4 days
Percentage coverage of agar surface ([10]; 4 days): 10%
Percentage coverage of agar surface ([10]; 7 days): 50%
Percentage coverage of agar surface ([10]; 16 days): 50%
Percentage coverage of agar surface ([10]; 24 days): 50%
Percentage coverage of agar surface ([10]; 31 days): 50%
time up to which growth of the culture was significantly inhibited [11]: 4 days
Percentage coverage of agar surface ([11]; 4 days): 60%
Percentage coverage of agar surface ([11]; 7 days): 95%
Percentage coverage of agar surface ([11]; 16 days): 100%
Percentage coverage of agar surface ([11]; 24 days): 100%
Percentage coverage of agar surface ([11]; 31 days): 100%
